PMC8653067 (ChemMedChem, 2021)
Entries after “also recorded” stand apart in the source; their conditions may differ. Like-named read-outs stand apart in the source and are kept apart here.

Experiments:
[1] = molecular target: T1, PLpro from SARS-CoV-2 (Severe acute respiratory syndrome coronavirus 2, UniProt P0DTD1); format: biochemical; conditions: for IC50: read-out: IC50 (µM) determined using Z-LRGG-AMC as a PLpro substrate
[2] = molecular target: T1, PLpro from SARS-CoV-2; format: biochemical; conditions: for Extent of PLpro inhibition in IC50 assay (in words): 5 μM Ub-AMC substrate; for IC50: read-out: IC50 (µM) determined using Ub-AMC as a PLpro substrate, 20 nM PLpro, 5 μM Ub-AMC, triplicates
[3] = molecular target: T1, PLpro from SARS-CoV-2; format: biochemical
[4] = molecular target: ubiquitin C-terminal hydrolase L3; conditions: read-out: reported IC50 for ubiquitin C-terminal hydrolase L3; cited from earlier work
[5] = 20 nM PLpro, 50 μM Z-LRGG-AMC, triplicates
[6] = 200 μM inhibitor, 20 nM PLpro, 50 μM Z-LRGG-AMC
[7] = Z-LRGG-AMC substrate, highest tested concentration 200 μM

For `N#Cc1nc2c(nc1C#N)-c1ccccc1/C2=N\OCc1ccccc1` [DUB-IN-1], the IC50 [1, 5] was > 100 µM.

In the case of `CCO/N=C1\c2ccccc2-c2nc(C#N)c(C#N)nc21` [DUB-IN-2], the IC50 [1] is reported as > 100 µM.

With `C=CCO/N=C1\c2ccccc2-c2nc(C#N)c(C#N)nc21` [DUB-IN-3] the “Extent of PLpro inhibition in IC50 characterization (in words)” value [1] was “only partial inhibition of PLpro”, the “Extent of PLpro inhibition in IC50 assay (in words)” value [2] was “simple inhibition curve that did not reach its plateau at the highest inhibitor concentration” and the IC50 [2] was > 10 µM.

For `CC(=O)O/N=C1\C(=O)N(Cc2cc(Cl)ccc2Cl)c2ccc(Cl)cc21` [LDN-57444], the IC50 [1, 5] was > 100 µM and the “PLpro inhibition in initial screening” value [3, 6] was “inhibited PLpro partially but at significant levels”.

For `Cc1ccc(S(=O)(=O)Nc2cc(C(F)(F)F)ccc2C(=O)Nc2nc(-c3ccccc3)cs2)cc1` [ML364], the “Extent of PLpro inhibition in IC50 characterization (in words)” value [1, 7] was “did not show strong concentration-dependent inhibition of PLpro” and the “PLpro inhibition in initial screening” value [3, 6] was “significant quenching effects leading to negative signals”.

With `Cc1ccc(/C=C2\CNC/C(=C\c3ccc(C)cc3)C2=O)cc1` [NSC63283] the IC50 [1, 5] was > 100 µM.

For `CC(=O)c1cc([N+](=O)[O-])c(Sc2cccc(Cl)c2Cl)s1` [P005091], the IC50 [1, 5] was > 100 µM and the “PLpro inhibition in initial screening” value [3, 6] was “inhibited PLpro partially but at significant levels”.

In the case of `CC(=O)c1cc([N+](=O)[O-])c(Sc2ccc(F)cc2F)s1` [P22077], the IC50 [1, 5] is reported as > 100 µM and the “PLpro inhibition in initial screening” value [3, 6] is reported as “inhibited PLpro partially but at significant levels”.

With `N#CSc1cc(SC#N)c(N)nc1N` [PR-619] the “Extent of PLpro inhibition in IC50 characterization (in words)” value [1, 7] was “strongly inhibited PLpro at concentrations above 1 μM; also recorded: can fully inhibit PLpro at 200 µM”, the “PLpro inhibition in initial screening” value [3, 6] was “significant quenching effects leading to negative signals” and the IC50 [2] was 12.9 ± 2.4 µM.

With `O=C1c2ccccc2C(=O)c2oc(-c3ccccc3)nc21` [SJB2–043] the “Extent of PLpro inhibition in IC50 characterization (in words)” value [1, 7] was “only partial inhibition of PLpro”, the “Extent of PLpro inhibition in IC50 characterization (in words)” value ([1]; Z-LRGG-AMC substrate, highest tested concentration 200 μM, listed as SBJ2–043) was “can only partially inhibit PLpro” and the “PLpro inhibition in initial screening” value [3, 6] was “inhibited PLpro partially but at significant levels”. The “Extent of PLpro inhibition in IC50 assay (in words)” value [2] was “did not inhibit PLpro completely” and the IC50 [2] was 0.091 ± 0.024 µM.

For `O=C1c2ccccc2C(=O)c2oc(-c3cccnc3)nc21` [SJB3–019A], the “Extent of PLpro inhibition in IC50 characterization (in words)” value [1, 7] was “only partial inhibition of PLpro”, the IC50 [1, 5] was 8.15 ± 3.59 µM and the “PLpro inhibition in initial screening” value [3, 6] was “inhibited PLpro partially but at significant levels”.

For `O=C1CC(=O)c2c(Cl)c(Cl)c(Cl)c(Cl)c21` [TCID], the “Extent of PLpro inhibition in IC50 characterization (in words)” value [1] was “can fully inhibit PLpro at 200 µM”, the “PLpro inhibition in initial screening” value [3] was “inhibited PLpro activity almost completely” and the IC50 [2] was 10.5 ± 2.7 µM. For the same compound, the IC50 [4] was 0.6 µM.

In the case of `C=CC(=O)N1CC/C(=C\c2ccc(F)c([N+](=O)[O-])c2)C(=O)/C(=C/c2ccc(F)c([N+](=O)[O-])c2)C1` [VLX1570], the IC50 [1, 5] is reported as > 100 µM.

In the case of HBX19818, the IC50 [1, 5] is reported as > 100 µM and the “PLpro inhibition in initial screening” value [3, 6] is reported as “inhibited PLpro partially but at significant levels”.
